Test results: article PMC2999418, “Biological Activity and Binding Site Characteristics of the PA1b Entomotoxin on Insects from Different Orders” (Journal of Insect Science, 2007)
Read-outs that look alike come from different tables or passages of the source.

Legend:
Sitophilus oryzae = settings: three natural S. oryzae strains able to feed on pea seeds; ref Grenier et al. 1997; cited from earlier work
From the text: S. oryzae strains resistant to PA1b exist naturally.

[1] = tested on: gut extracts from M. brassicae; format: in vitro ADME, Mamestra brassicae; settings: 400 µg M. brassicae gut proteins per assay, 10 µg PA1b, pH 3 to 9, 30°C, one night incubation; C18 HPLC; data not shown
Method: PA1b degradation assays were performed using 10 µg of peptide (PA1b isoform mixture) in a final volume of 100 µl buffer. Assays with commercially (SIGMA, www.sigmaaldrich.com) available enzymes were performed in Glycine-NaOH buffer (20 mM pH 9) at 3O°C for proteinase K (E.C. 3.4.21.64), Tris-HCl buffer (20 mM pH 7.5) + EDTA 10 mM at 37°C for pronase E type XIV, MES-NaOH buffer (20 mM pH 6.2) at 25°C for papain (E.C. 3.4.22.2), Tris-HCl buffer (20 mM pH 7.8) at 25°C for chymotrypsin (E.C. 3.4.21.1), and Tris-HCl buffer (20 mM pH 7.6) at 25°C for trypsin (E.C. 3.4.21.4). Assays were done with 10 µg of each enzyme, and control assays were performed with 10 µg of enzymes denaturated by 10 min boiling. Assays with insect extracts were carried out in 20 mM buffers from pH 3 to 9 (Glycine-HCl, pH 3; sodium acetate pH 4-5; MES-NaOH pH 6; Tris-HCl pH 7-8; Glycine NaOH pH 9) at 3O°C. […]
For all assays, after a one night incubation, 150 µl of methanol were added to the mixture and incubated for 60 min at 4°C. […] PA1b peptide isoforms were detected by their absorbance at 210 nm, quantified by the measurement of the peak area and with reference to known quantities of pure peptide isoform used as standards. […]

[2] = molecular target: PA1b binding protein on membrane extracts; assay: 125I-PA1b binding (competition) on insect membrane extracts; set-up: species or system Harmonia axyridis; settings: H. axyridis membrane extracts; competition with purified 3741 isoform
Method: (§1) The isolation of membrane proteins for binding studies was performed as described by Gressent et al. ([2003]). For PA1b degradation tests, insect extracts were prepared as follows, 1 g of insects were ground with a mortar and pestle in liquid nitrogen. The resulting powder was resuspended in 2 ml of extraction buffer (20 mM Tris-HCl pH 8; 0.25 M sucrose; 2 mM MgCl2). The slurry was centrifuged for 2 min at 1000 g, and the supernatant was stored at -2O°C until required. All the operations were performed at 4°C.
(§2) The peptidic toxin PA1b-3471 isoform was labelled with I^125 to a specific radioactivity of about 900 Ci.mmor^-1, and then used for binding studies with membrane extracts, according to Gressent et al. ([2003]).
(§3) PA1b binding activity was present in all insect species, except for the resistant weevil strains and the pea specific pest Bruchus pisorum, regardless of the sensitivity or insensitivity of these insects to PA1b toxicity, as evaluated from our insect bioassays. […] The relative abundance of the binding sites was also slightly different in this group of species, varying from 10 pmol/mg of protein for T. pretiosum to a maximum of 79 pmol/mg of protein for M. persicae.

[3] = tested on: A. gossypii protein extracts; assay: PA1b degradation assay with total insect protein extract; format: in vitro ADME, Aphis gossypii; settings: 200 µg A. gossypii (L4) proteins, 10 µg PA1b in 100 µl, 20 mM buffers pH 3 to 9, 30°C, one night incubation; C18 HPLC, UV 210 nm; mean of triplicates
Method: as §1
PA1b degradation assays were performed using 10 µg of peptide (PA1b isoform mixture) in a final volume of 100 µl buffer. […]
For all assays, after a one night incubation, 150 µl of methanol were added to the mixture and incubated for 60 min at 4°C. […] PA1b peptide isoforms were detected by their absorbance at 210 nm, quantified by the measurement of the peak area and with reference to known quantities of pure peptide isoform used as standards.
Figure 3. […] Degradation of PA1b was monitored after incubation by reverse-phase HPLC. […]

[4] = molecular target: PA1b binding protein on membrane extracts; assay: 125I-PA1b binding (competition) on insect membrane extracts; set-up: species or system Myzus persicae; settings: M. persicae membrane extracts; competition with purified 3741 isoform
Method: as §1, §2, §3

P. aeruginosa = assay: Antimicrobial test, bacterial survival; format: cell-based; settings: increasing toxin concentration up to 64 µg-ml^-1, 24 and 48 hours
Method: (§4) A possible antimicrobial and antifungal activity of PA1b was next tested on four bacterial and three fungal species. The experiments were done using an increasing toxin concentration, up to 64 µg-ml^-1.

E. coli = assay: Antimicrobial test, bacterial survival; format: cell-based; settings: increasing toxin concentration up to 64 µg-ml^-1, 24 and 48 hours
Method: as §4

S. aureus = assay: Antimicrobial test, bacterial survival; format: cell-based; settings: increasing toxin concentration up to 64 µg-ml^-1, 24 and 48 hours
Method: as §4

E. faecium = assay: Antimicrobial test, bacterial survival; format: cell-based; settings: increasing toxin concentration up to 64 µg-ml^-1, 24 and 48 hours
Method: as §4

Tribolium castaneum = assay: Red flour beetle adult toxicity test, toxin mixed into diet; format: in vivo; settings: 1000 µg per g of food, feeding for 15 days
Method: The red flour beetle Tribolium castaneum (Coleoptera), was provided by François Bonneton (Centre de Génétique Moléculaire Cellulaire, Lyon, France). Tests were performed on adults by mixing the toxin into the diet (wheat flour 95%, yeast extract 5%).
All toxicity assays were carried out using a mixture of PA1b isoforms (98% purity by HPLC). All tests were performed on at least 30 insects for assays and for control test (without toxin), except for the three aphid species (50 insects) and for Trichogramma (more than 300 eggs by assays). When adults were used, the insects were synchronized at the imaginal molt. The statistical analyses were performed using the JMP software (SAS, Grégy-sur-Yerres FRA).

[5] = molecular target: PA1b binding protein on membrane extracts; settings: ref Gressent et al (2003), cited from earlier work
From the text: Table 1. Affinity (Kd) and relative abundance (Bmax) of the PA1b binding protein on membrane extracts from different insect species and strains. | column: Kd (nM); Bmax (pmol/mg of protein)

## ASCNGVCSPFEMPPCGTSACRCIPVGLVIGYCR NPSG (bicyclic or more) [PA1b, plant peptide of 37 amino acids purified from pea (Pisum sativum) seeds; entomotoxic cystine-knot peptide with three disulfide bonds]
Sitophilus oryzae
  resistance of pea-feeding S. oryzae strains to the purified toxin: fully resistant
[1]
  recovery of PA1b after incubation with native or heat inactivated gut proteins: no difference
[2]
  Kd: 52 nM
[3]
  recovered PA1b after incubation with insect proteins versus heat-denatured control: very close to the control test
[4]
  Kd: 62 nM
P. aeruginosa
  effect on bacterial survival: no effect was detected
E. coli
  effect on bacterial survival: no effect was detected
S. aureus
  effect on bacterial survival: no effect was detected
E. faecium
  effect on bacterial survival: no effect was detected
Tribolium castaneum
  effects on adults: no effects were detectable
  survival of adults: all insects survived
[5]; S. granarius Brayard membrane extracts
  Kd: 6.3 nM
[5]; S. zeamais Ls membrane extracts
  Kd: 9 nM
